{"source": "patent US20230041980A1", "about": "“METHOD OF PROTECTING A RESPIRATORY TRACT OR A LUNG FROM DAMAGE, METHOD OF PROTECTING A LUNG FROM PRESSURE DAMAGE INDUCED BY A VENTILATOR, METHOD OF SUPPRESSING SPREAD OF INFECTION WITH VIRUSES OR BACTERIA THAT CAUSE PNEUMONIA IN PULMONARY BRONCHIAL EPITHELIAL CELLS OR ALVEOLAR EPITHELIAL CELLS, AND …” (NEXT21 KABUSHIKI KAISHA, priority 2020, published 2023)", "key": {"Asthma model mice [1]": {"system": "Asthma model mice", "assay": "Airway resistance and compliance of OVA asthma model mice", "assay_type": "in vivo, BALB/c mice", "details": "versus amount of muscarine receptor stimulant, inhalation, compared with OVA/OVA; for airway resistance: FIG. 2A; for compliance: FIG. 2B", "procedure": "(§1) Asthma model mice were produced using BALB/c mice (8 to 10 weeks old) and ovalbumin (OVA) serving as an antigen, and examinations were conducted by administering trehalose by inhalation. On the first day and the fourteenth day, a physiological saline solution or OVA was intraperitoneally administered. 20 micrograms of OVA was administered to one mouse using aluminum hydroxide as an adjuvant. From the twenty-seventh day to the thirty-first day, 10% trehalose or distilled water was administered by inhalation for 20 minutes every day. Moreover, from the twenty-eighth day to the thirtieth day, a physiological saline solution or 1% OVA was administered by inhalation for 20 minutes, 1 to 1.5 hours after the above-mentioned inhalation. On the thirty-second day, evaluation was conducted using an assay system for evaluating allergic airway inflammation and hyperresponsive airway.\nThe airway resistance and the compliance of the model mice of Example 1 were measured. […] On the other hand, FIGS. 2A and 2B also show the results of the experiment in which lactose was used instead of trehalose (OVA/OVA+Lac)."}, "Asthma model mice [2]": {"system": "Asthma model mice", "assay": "Numbers of inflammation-inducing cells in bronchoalveolar lavage fluid", "assay_type": "in vivo, BALB/c mice", "details": "inhalation; compared with OVA/OVA; FIG. 4", "procedure": "as §1, with “airway. Bronchoalveolar lavage was performed on the model mice of Example 1, and the numbers of various cells obtained through the bronchoalveolar lavage were compared and examined. It should be noted that, in this example, 0.5 mL of a physiological saline solution containing 50 μg of ovalbumin (OVA) and 1 mg of aluminum hydroxide gel serving as an adjuvant was administered to OVA-administration mice (OVA/OVA) […]. […]” for “airway.”"}, "IL-5": {"system": "IL-5", "assay": "IL-5 level in bronchoalveolar lavage fluid (ELISA)", "assay_type": "in vivo, BALB/c mice", "details": "OVA/OVA+Treh vs OVA/OVA, FIG. 5B", "procedure": "as §1, with “airway. Bronchoalveolar lavage was performed on the model mice of Example 1, and the numbers of various cells obtained through the bronchoalveolar lavage were compared and examined. […] The cytokine levels in the bronchoalveolar lavage fluids obtained in Example 4 were measured using an ELISA measurement kit. […] It should be noted that interferon (IFN-γ) was not detected from any of the groups. […]” for “airway.”"}, "[3]": {"system": "alveolar epithelial cells", "assay": "Pulmonary tissue sections, H.E. and PAS staining, asthma model mice", "assay_type": "in vivo, BALB/c mice", "details": "primary inhalation of trehalose, FIGS. 3A, 3B", "procedure": "as §1, with “airway. Pulmonary tissue pathological sections were produced from the model mice of Example 1, and the diseases state was observed through hematoxylin-eosin (H.E.) staining and periodic acid-Schiff (PAS) staining. FIGS. 3A and 3B show the results of H.E. staining and the results of PAS staining, respectively.” for “airway.”"}, "[4]": {"system": "oral epithelial cell line (Ca9-22)", "assay": "LIVE/DEAD assay after drying stimulus", "assay_type": "cell-based", "details": "7.5% trehalose pretreatment 15 minutes, dried 7 minutes, FIG. 8A"}, "TGF-β1": {"system": "TGF-β1", "assay": "TGF-β1 induced by homogenized cell lysate (ELISA)", "assay_type": "cell-based", "details": "lysate homogenized in 10% aqueous trehalose vs saline; RAW264.7 cells, 8 hours; acid-treated medium; FIG. 7D", "procedure": "Moreover, RAW264.7 cells cultured in a 225-cm^2 flask were homogenized in a physiological saline solution (saline) or a 10% aqueous solution of trehalose (trehalose) using a homogenizer, and cell lysate was thus prepared. The above-mentioned cell lysate was added to RAW264.7 cells that were being cultured in 6 wells, and the cells were cultured for another 8 hours. Then, the culture medium was collected. The culture medium was treated with acid, and then TGF-β1 in the culture medium was measured using ELISA (manufactured by R&D Systems).\nIn the above-mentioned tests, the cell lysate obtained through homogenization using a homogenizer was used as a model of cell disruption caused by damage (including a surgical operation)."}, "IgE antibody": {"system": "IgE antibody", "assay": "IgE antibody levels in serum of OVA asthma model mice", "assay_type": "in vivo, BALB/c mice", "details": "10% trehalose by inhalation 20 min daily, day 27-31, OVA/OVA+Treh vs OVA/OVA, P<0.05", "procedure": "as §1, with “airway. FIGS. 1A and 1B show the measurement results of the IgE antibodylevels in the serum. […] Suppressing the production of IgE antibodies makes it possible to suppress an increase in the severity of pulmonary tissue lesion caused by cytokine storm, which is an overreaction of the immune system caused by chemical mediators from mast cells. […]” for “airway.”"}, "prostaglandin E2": {"system": "prostaglandin E2", "assay": "Prostaglandin E2 induced by homogenized cell lysate (EIA)", "assay_type": "cell-based", "details": "lysate homogenized in 10% aqueous trehalose vs saline; RAW264.7 cells, 8 hours; FIG. 7C"}, "TNF-α [5]": {"system": "TNF-α", "assay": "TNF-α induced by heat-shocked dead cell solution (ELISA)", "assay_type": "cell-based", "details": "10% aqueous trehalose vs saline added to cell solution (53° C. 10 minutes); RAW264.7 cells, 8 hours; FIG. 7E", "procedure": "Moreover, RAW264.7 cells cultured in a 225-cm^2 flask were collected, and heat shock was applied to the cells at 53° C. for 10 minutes. Then, the cells were left to stand at 37° C. for 5 hours to induce cell death, and the resulting solution was used as a cell solution. Thereafter, a physiological saline solution (saline) or a 10% aqueous solution of trehalose (trehalose) was added to the cell solution, and the resulting solution was treated on ice for 30 minutes. The above-mentioned cell solution was added to RAW264.7 cells that were being cultured in 6 wells, and the cells were cultured for another 8 hours. Then, TNF-α was measured using ELISA (manufactured by R&D Systems).\nIn this test, the cell solution including dead cells induced by heat shock was used as a model of cell disruption caused by a burn."}, "IL-1α": {"system": "IL-1α", "assay": "IL-1α induced by homogenized cell lysate (ELISA)", "assay_type": "cell-based", "details": "lysate homogenized in 10% aqueous trehalose vs saline; RAW264.7 cells, 8 hours; FIG. 7B"}, "PLA2": {"system": "PLA2", "assay": "Released [3H]-arachidonic acid after drying stimulus (PLA2 activation)", "assay_type": "cell-based", "details": "7.5% trehalose pretreatment 15 minutes, dried 7 minutes; Ca9-22; FIG. 8B", "procedure": "The oral epithelial cell line (Ca9-22) maintained in DMEM-10% FBS was treated with [^3H]-arachidonic acid overnight. Pretreatment with a physiological saline solution (Sal), 7.5% trehalose (Tre), or 7.5% maltose (Mal) was conducted for 15 minutes, and then the cells were dried for 7 minutes. Subsequently, a culture medium was added, and then the cells were cultured for 1 hour."}, "[6]": {"system": "RAW264.7 cells (macrophages)", "assay": "[3H]-arachidonic acid release after hydrogen peroxide stimulus", "assay_type": "cell-based", "details": "5% trehalose, hydrogen peroxide for 3 hours, FIG. 6B", "procedure": "(§2) Suppression of PLA2 activation caused by applying hydrogen peroxide stimulus to RAW264.7 cells (macrophages) was measured using [^3H]-AA release assay. FIGS. 6A and 6B show the measurement results showing the influence of trehalose on hemolysate or oxygen free radicals. FIGS. 6A and 6B show the measurement results in the case where a culture medium or hemolysate contains a physiological saline solution (Sal), 5% trehalose (Ire), or 5% maltose (Mal). […] In this experiment, RAW264.7 cells were treated with 10% hemolysate for 3 hours. The hemolysate was prepared as a supernatant by suspending erythrocytes of a Wistar rat in a saline solution, an aqueous solution of trehalose, or an aqueous solution of maltose, sonicating the resulting suspension, and then centrifuging the suspension. The LPO level was measured through a colorimetric analysis using a divalent iron molecule. […] In this experiment, RAW264.7 cells were labeled with [3H] arachidonic acid overnight and then treated with hydrogen peroxide for 3 hours. The level of released arachidonic acid was quantified by measuring the radioactivity of the collected culture medium."}, "IL-4": {"system": "IL-4", "assay": "IL-4 level in bronchoalveolar lavage fluid (ELISA)", "assay_type": "in vivo, BALB/c mice", "details": "OVA/OVA+Treh vs OVA/OVA, FIG. 5A", "procedure": "as §1, with “airway. Bronchoalveolar lavage was performed on the model mice of Example 1, and the numbers of various cells obtained through the bronchoalveolar lavage were compared and examined. […] The cytokine levels in the bronchoalveolar lavage fluids obtained in Example 4 were measured using an ELISA measurement kit. […] It should be noted that interferon (IFN-γ) was not detected from any of the groups. […]” for “airway.”"}, "IL-13": {"system": "IL-13", "assay": "IL-13 level in bronchoalveolar lavage fluid (ELISA)", "assay_type": "in vivo, BALB/c mice", "details": "OVA/OVA+Treh vs OVA/OVA, FIG. 5C", "procedure": "as §1, with “airway. Bronchoalveolar lavage was performed on the model mice of Example 1, and the numbers of various cells obtained through the bronchoalveolar lavage were compared and examined. […] The cytokine levels in the bronchoalveolar lavage fluids obtained in Example 4 were measured using an ELISA measurement kit. […] It should be noted that interferon (IFN-γ) was not detected from any of the groups. […]” for “airway.”"}, "[7]": {"system": "RAW264.7 cells (macrophages)", "assay": "Lipid peroxides (LPO) in cells treated with hemolysate", "assay_type": "cell-based", "details": "5% trehalose, 10% hemolysate for 3 hours, FIG. 6A", "procedure": "as §2"}, "TNF-α [8]": {"system": "TNF-α", "assay": "TNF-α induced by homogenized cell lysate (ELISA)", "assay_type": "cell-based", "details": "RAW264.7 cells"}}}
{"smiles": "OC[C@H]1O[C@@H](O[C@H]2[C@H](O)[C@@H](O)C(O)O[C@@H]2CO)[C@H](O)[C@@H](O)[C@H]1O", "note": "(stereo partly shown) [lactose, reference compound]", "values": [{"measurement": "airway resistance", "setting": "Asthma model mice [1]", "value": "does not have an action of suppressing an increase in the airway resistance"}, {"measurement": "compliance", "setting": "Asthma model mice [1]", "value": "not different from each other"}, {"measurement": "numbers of inflammation-inducing cells in bronchoalveolar lavage fluid (Total, Mo, Ly, Eo, Nt)", "setting": "Asthma model mice [2]", "value": "does not have an action of suppressing the release of inflammation-inducing cells"}]}
{"smiles": "OC[C@H]1O[C@H](O[C@H]2O[C@H](CO)[C@@H](O)[C@H](O)[C@H]2O)[C@H](O)[C@@H](O)[C@@H]1O", "note": "[trehalose]", "values": [{"measurement": "airway resistance", "setting": "Asthma model mice [1]", "value": "significantly reduced the airway resistance"}, {"measurement": "compliance", "setting": "Asthma model mice [1]", "value": "significantly increased the compliance"}, {"measurement": "IL-5 level in bronchoalveolar lavage fluid", "setting": "IL-5", "value": "significantly suppress the expression of cytokines"}, {"measurement": "damage to alveolar epithelial cells (inflammatory cell infiltration, goblet cell hyperplasia)", "setting": "[3]", "value": "suppress damage to the alveolar epithelial cells"}, {"measurement": "cell death caused by drying stimulus (LIVE/DEAD assay)", "setting": "[4]", "value": "suppresses cell death caused by drying stimulus"}, {"measurement": "numbers of inflammation-inducing cells in bronchoalveolar lavage fluid (Total, Mo, Ly, Eo, Nt)", "setting": "Asthma model mice [2]", "value": "significantly reduced cell release"}, {"measurement": "TGF-β1 level induced by cell lysate", "setting": "TGF-β1", "value": "significantly reduced"}, {"measurement": "total IgE level in serum", "setting": "IgE antibody; FIG. 1A", "value": "significantly reduce the production amount of IgE"}, {"measurement": "level of IgE specific to the antigen (ovalbumin) in serum", "setting": "IgE antibody; FIG. 1B", "value": "significantly reduce the production amount of IgE"}, {"measurement": "prostaglandin E2 level induced by cell lysate", "setting": "prostaglandin E2", "value": "significantly reduced"}, {"measurement": "TNF-α level induced by heat-shocked cell solution", "setting": "TNF-α [5]", "value": "significantly reduced"}, {"measurement": "IL-1α level induced by cell lysate", "setting": "IL-1α", "value": "significantly reduced"}, {"measurement": "PLA2 activation caused by drying stimulus (released arachidonic acid)", "setting": "PLA2", "value": "suppresses PLA2 activation caused by drying stimulus"}, {"measurement": "level of released arachidonic acid", "setting": "[6]", "value": "protecting cells from oxygen free radicals and hemolysate"}, {"measurement": "IL-4 level in bronchoalveolar lavage fluid", "setting": "IL-4", "value": "significantly suppress the expression of cytokines"}, {"measurement": "IL-13 level in bronchoalveolar lavage fluid", "setting": "IL-13", "value": "significantly suppress the expression of cytokines"}, {"measurement": "lipid peroxides (LPO) level", "setting": "[7]", "value": "protecting cells from oxygen free radicals and hemolysate"}, {"measurement": "dose dependence of suppression of the TNT-α production", "setting": "TNF-α [8]; cell lysate model", "value": "depends on the dosage of trehalose"}, {"measurement": "TNF-α level induced by cell lysate", "setting": "TNF-α [8]; lysate homogenized in 10% aqueous trehalose vs saline, 8 hours, FIG. 7A", "value": "significantly reduced"}]}
